This passage reports IC50 results from US10538520B2, “Benzamide and nicotinamide compounds and methods of using same” (OncoTartis Inc., priority 2013, dated 2020).

Each structure is given as a SMILES string. Bounds are passed on as bounds.

In experiment [1] the test system is MV4-11. Briefly: Cytotoxicity towards MV4-11 cell line. It counts as cell-based. To be noted: Homo sapiens. As for the experimental part: (§1) In various embodiments, the compounds of the disclosure are those in which show IC50 values in cytotoxicity experiments towards cells lines MV4-11 and U937 of >20 μM, 10-20 μM, 5-10 μM, 1-5 μM, or <1 μM.
(§2) The IC50 is divided into 5 categories: A<1 μM, B 1-5 μM, C 5-10 μM, D 10-20 μM, and E>20 μM.

For experiment [2], the system named is U-937. The experiment can be described thus: Cytotoxicity towards U-937 cell line. The experiment is classed as cell-based. To be noted: Homo sapiens. As for the experimental part: as §1, §2

Take `CC(C)(C)NC(=O)c1ccc(-n2cccn2)c(C#Cc2ccccn2)c1` [TT-02946]: the IC50 is more than 20000 nM in experiment [1] and 5000 to 10000 nM in experiment [2].
The matching figures for `Cc1nc(C)n(CCNC(=O)c2ccc(-n3cccn3)c(C#Cc3ccccc3)c2)n1` [TT-02805]: 1000 to 5000 nM and less than 1000 nM.
The matching figures for `O=C(NCCCn1ccnc1)c1ccc(-n2cccn2)c(CCc2ccccc2)c1` [TT-03574]: 5000 to 10000 nM and 5000 to 10000 nM.
The matching figures for `O=C(NCCCn1ccnc1)c1ccc(-c2ccncc2)c(C#Cc2ccccc2)c1` [TT-03256]: less than 1000 nM and less than 1000 nM.
Turning to `Cn1cnnc1C1CCN(C(=O)c2ccc(-n3cccn3)c(C#Cc3ccccc3)c2)C1` (centres unmarked) [TT-02803], the IC50 is more than 20000 nM in experiment [1] and less than 1000 nM in experiment [2].
Regarding `O=C(NCCCc1cn[nH]c1)c1ccc(-n2cccn2)c(C#Cc2ccc(F)cn2)c1` [TT-03569], the IC50 in experiment [1] and in experiment [2] was less than 1000 nM in each case.
Take `O=C(NCC(O)Cc1cn[nH]c1)c1cnc(N2CCOCC2)c(C#Cc2ccc(F)cc2)c1` (centres unmarked) [TT-03774]: the values for the IC50 in experiment [1] and in experiment [2] were less than 1000 nM and 1000 to 5000 nM, respectively.
The matching figures for `COc1ccccc1C#Cc1cc(C(=O)NCCCc2cn[nH]c2)ccc1-n1cccn1` [TT-03330]: less than 1000 nM and less than 1000 nM.
The matching figures for `Cc1ccc(C(=O)NCCCc2cn[nH]c2)cc1C#Cc1ccccc1` [TT-03248]: less than 1000 nM and less than 1000 nM.
The matching figures for `C[C@@H]1CN(c2ncc(C(=O)NCCCc3cn[nH]c3)cc2C#Cc2ccc(Cl)cc2)C[C@H](C)O1` [TT-03753]: less than 1000 nM and less than 1000 nM.
As for `O=C(NC/C=C/c1cn[nH]c1)c1ccc(N2CCCC2)c(C#Cc2ccc(F)cc2)c1` [TT-03717], the IC50 in experiment [1] and in experiment [2] was less than 1000 nM each time.
Take `C[C@@H]1CN(c2ccc(C(=O)NCCCn3ccnc3)cc2C#Cc2ccc(F)cc2)C[C@H](C)O1` [TT-03727]: the IC50 in experiment [1] and in experiment [2] was less than 1000 nM in each case.
Turning to `C[C@@H]1CN(c2ncc(C(=O)NC/C=C/c3cn[nH]c3)cc2C#Cc2ccc(Cl)cc2)C[C@H](C)O1` [TT-03752], the IC50 in experiment [1] and in experiment [2] was less than 1000 nM throughout.
On to `O=C(NCCCn1ccnc1)c1ccc(-n2cccn2)c(C#Cc2ccccc2Cl)c1` [TT-02750], for which the IC50 in experiment [1] and in experiment [2] was less than 1000 nM throughout.
Turning to `NC(=O)c1cccc(C#Cc2cc(C(=O)NCCCc3cn[nH]c3)ccc2-n2cccn2)c1` [TT-03625], the IC50 in experiment [1] and in experiment [2] was less than 1000 nM in each case.
Take `Cn1ccnc1C(C)(O)CC1CCCN1C(=O)c1ccc(-n2cccn2)c(C#Cc2ccccc2)c1` (centres unmarked) [TT-02793]: the IC50 in experiment [1] was more than 20000 nM; in experiment [2] it was 5000 to 10000 nM.
Take `Cc1cccc(C#Cc2cc(C(=O)NCCCc3cn[nH]c3)ccc2-n2cccn2)c1` [TT-03328]: the half-maximal inhibitory concentration (IC50) in experiment [1] and in experiment [2] was less than 1000 nM throughout.
Regarding `O=C(NCc1cccnc1)c1ccc(-n2cccn2)c(C#Cc2ccccc2)c1` [TT-02684], the IC50 in experiment [1] and in experiment [2] was less than 1000 nM each time.
In the case of `O=C(NCCCc1cn[nH]c1)c1ccc(N2CCOCC2)c(C#Cc2ccc(Cl)nc2)c1` [TT-03655], the IC50 in experiment [1] and in experiment [2] was less than 1000 nM each time.
With `Cc1ccc(C#Cc2cc(C(=O)NCCCn3ccnc3)ccc2-n2cccn2)cc1` [TT-02745], the IC50 in experiment [1] and in experiment [2] was less than 1000 nM each time.
For the compound `Cc1noc(CNC(=O)c2ccc(-n3cccn3)c(C#Cc3ccccc3)c2)n1` [TT-02802], the IC50 is more than 20000 nM in experiment [1] and 1000 to 5000 nM in experiment [2].
Turning to `CC(CNC(=O)c1ccc(-n2cccn2)c(C#Cc2cccnc2)c1)n1cncn1` (centres unmarked) [TT-02933], the IC50 in experiment [1] and in experiment [2] was more than 20000 nM each time.
As to `C[C@@H]1CN(c2ncc(C(=O)NC/C=C/c3cn[nH]c3)cc2C#Cc2ccc(F)cc2)C[C@H](C)O1` [TT-03751], the IC50 in experiment [1] and in experiment [2] was less than 1000 nM in each case.
With `O=C(NCCCc1cn[nH]c1)c1ccc(-n2cccn2)c(C#Cc2ccccc2C(F)(F)F)c1` [TT-03323], the IC50 in experiment [1] and in experiment [2] was less than 1000 nM each time.
For the compound `O=C(NCCCCn1ccnc1)c1ccc(-n2cccn2)c(C#Cc2ccccc2)c1` [TT-02717], the IC50 in experiment [1] and in experiment [2] was less than 1000 nM in each case.
With `O=C(NCCCn1ccnc1)c1cc(C#Cc2ccccc2)c2nccn2c1` [TT-02760], the IC50 in experiment [1] and in experiment [2] was 10000 to 20000 nM in each case.
For `O=C(NCCCc1cn[nH]c1)c1ccc(N2CCC(C(F)(F)F)CC2)c(C#Cc2ccc(F)cc2)c1` [TT-03591], the IC50 in experiment [1] and in experiment [2] was less than 1000 nM in each case.
Turning to `O=C(NCCCn1ccnc1)c1ccc(-n2cccn2)c(C#Cc2cccc(C(F)(F)F)c2)c1` [TT-03331], the IC50 in experiment [1] and in experiment [2] was less than 1000 nM each time.
Consider `CNC(=O)c1cccc(C#Cc2cc(C(=O)NCCCc3cn[nH]c3)ccc2-n2cccn2)c1` [TT-03359], for which the IC50 in experiment [1] and in experiment [2] was less than 1000 nM throughout.
In the case of `CC(=O)N1CCN(c2ccc(C(=O)NCCCc3cn[nH]c3)cc2C#Cc2ccc(F)cc2)CC1` [TT-03599], the IC50 in experiment [1] and in experiment [2] was less than 1000 nM each time.
Regarding `NCCOCCOCCOCCN1CCN(c2ccc(C(=O)NCCCn3ccnc3)cc2C#Cc2ccc(F)cc2)CC1` [TT-03725], the IC50 in experiment [1] and in experiment [2] was less than 1000 nM throughout.
`O=C(NCCCn1cccn1)c1ccc(-n2cccn2)c(C#Cc2ccccc2)c1` [TT-02709]: the figures for the IC50 in experiment [1] and in experiment [2] were more than 20000 nM and less than 1000 nM, respectively.
The matching figures for `Cn1cc(CCCNC(=O)c2ccc(-n3cccn3)c(C#Cc3ccc(F)cc3)c2)cn1` [TT-03630]: less than 1000 nM and less than 1000 nM.
The matching figures for `O=C(NCCCc1cn[nH]c1)c1ccc(N2CCCCC2CCO)c(C#Cc2ccc(F)cc2)c1` (centres unmarked) [TT-03592]: less than 1000 nM and less than 1000 nM.
The matching figures for `Cc1nncn1-c1ccc(C(=O)NCCCn2ccnc2)cc1C#Cc1ccccc1` [TT-02732]: less than 1000 nM and less than 1000 nM.
On to `Cc1nn(-c2ccc(C(=O)NCCCc3cn[nH]c3)cc2C#Cc2ccccc2)c(C)c1C` [TT-03626], for which the IC50 in experiment [1] and in experiment [2] was less than 1000 nM each time.
Regarding `O=C(NCCCc1cn[nH]c1)c1ccc(-n2cnnc2)c(C#Cc2ccccc2)c1` [TT-03237], the IC50 in experiment [1] and in experiment [2] was more than 20000 nM throughout.
In the case of `O=C(NCCCn1ccnc1)c1ccc(-n2cccn2)c(C#Cc2ccccc2F)c1` [TT-03225], the IC50 in experiment [1] and in experiment [2] was less than 1000 nM each time.
For the compound `Cc1cccc(C#Cc2cc(C(=O)NCCCn3ccnc3)ccc2-n2cccn2)c1` [TT-03327], the IC50 in experiment [1] and in experiment [2] was less than 1000 nM in each case.
For `O=C(NCc1cccnc1)c1ccc(-n2cccn2)c(C#Cc2cccnc2)c1` [TT-02944], the IC50 in experiment [1] is more than 20000 nM; in experiment [2] it was 10000 to 20000 nM.
The matching figures for `O=C(NCCCc1cn[nH]c1)c1ccc(N2CCOCC2)c(C#Cc2ccc(F)cn2)c1` [TT-03633]: less than 1000 nM and less than 1000 nM.
For the compound `Cc1nn(-c2ccc(C(=O)NCCc3c[nH]cn3)cc2C#Cc2ccccc2)c(C)c1C` [TT-02949], the IC50 was in the range of 10000 to 20000 nM in experiment [1] and 5000 to 10000 nM in experiment [2].
The matching figures for `O=C(NCCCc1cn[nH]c1)c1ccc(-c2ccncc2)c(C#Cc2ccc(F)cc2)c1` [TT-03582]: less than 1000 nM and less than 1000 nM.
The matching figures for `COc1ccc(C#Cc2cc(C(=O)NCCCc3cn[nH]c3)ccc2N2CCOCC2)cn1` [TT-03720]: less than 1000 nM and less than 1000 nM.
The matching figures for `O=C(NCCCc1cn[nH]c1)c1ccc(-c2ccncc2)c(C#Cc2ccccc2)c1` [TT-03246]: less than 1000 nM and less than 1000 nM.
As to `O=C(NCCCc1cn[nH]c1)c1ccc(-n2cccn2)c(C#Cc2ccccc2)c1` [TT-02715], the IC50 in experiment [1] and in experiment [2] was less than 1000 nM throughout.
Regarding `O=C(NCCCn1ccnc1)c1ccc(N2CCOCC2)c(C#Cc2ccccc2)c1` [TT-03261], the IC50 in experiment [1] and in experiment [2] was less than 1000 nM each time.
Regarding `O=C(NCCCc1cn[nH]c1)c1ccc(-n2cccn2)c(C#Cc2cccc(F)c2)c1` [TT-03198], the IC50 in experiment [1] and in experiment [2] was less than 1000 nM each time.
For `O=C(NCCCc1cn[nH]c1)c1ccc(-n2cccn2)c(C#Cc2cccc(C(F)(F)F)c2)c1` [TT-03332], the IC50 in experiment [1] and in experiment [2] was less than 1000 nM in each case.
In the case of `O=C1CN(c2ccc(C(=O)NCCCc3cn[nH]c3)cc2C#Cc2ccc(F)cc2)CCN1` [TT-03671], the IC50 in experiment [1] and in experiment [2] was less than 1000 nM throughout.
On to `C[C@@H]1CN(c2ccc(C(=O)NCCCc3cn[nH]c3)cc2C#Cc2ccc(Cl)cc2)C[C@H](C)O1` [TT-03754], for which the IC50 in experiment [1] and in experiment [2] was less than 1000 nM throughout.
With `O=C(NCCCc1cn[nH]c1)c1ccc(-n2cccn2)c(C#Cc2ccccc2Cl)c1` [TT-03321], the IC50 in experiment [1] and in experiment [2] was less than 1000 nM throughout.
As to `O=C(NCCCc1cn[nH]c1)c1cnc(N2CCS(=O)(=O)CC2)c(C#Cc2ccc(F)cc2)c1` [TT-03783], the IC50 in experiment [1] and in experiment [2] was less than 1000 nM in each case.
For `O=C(NCCCn1ccnc1)c1cccc(Br)c1` [TT-03073], the IC50 in experiment [1] and in experiment [2] was more than 20000 nM throughout.
As for `O=C(NCCCn1ccnc1)c1ccc(-n2cccn2)c(C#Cc2cccc(F)c2)c1` [TT-03217], the IC50 in experiment [1] and in experiment [2] was less than 1000 nM each time.
With `O=C(NCCCc1cn[nH]c1)c1ccc(-n2cccn2)c(C#Cc2cccc(N3CCCC3)n2)c1` [TT-03611], the IC50 in experiment [1] and in experiment [2] was less than 1000 nM each time.
For `O=C(NCCCn1ccnc1)c1ccc(Oc2ccccc2)c(C#Cc2ccccc2)c1` [TT-02741], the IC50 in experiment [1] and in experiment [2] was less than 1000 nM in each case.
For `Cc1n[nH]c(SCCNC(=O)c2ccc(-n3cccn3)c(C#Cc3cccnc3)c2)n1` [TT-02940], the values for the IC50 in experiment [1] and in experiment [2] were more than 20000 nM and 10000 to 20000 nM, respectively.

For orientation: IC50 means the concentration that gives 50% inhibition.
